Columns and labels:
Erysiphe graminis Hordei = assay: In vivo screen, Erysiphe graminis Hordei on barley; set-up: species or system Barley cv. Golden Promise; conditions: 400 ppm sprayed to run off, inoculated 24 hours later, barley at 1 leaf stage, scored after 7 days, percent control vs acetone-water control plants
Procedure: Barley cv. Golden Promise is used as the host plant. Seeds are sown 8 per 3 in. […] After a week symptoms are recorded. […] The percent control is then recorded.

Puccinia recondita = assay: In vivo screen, Puccinia recondita on wheat; set-up: species or system Wheat cv. Tonic; conditions: 400 ppm sprayed to run off, inoculated 24 hours later, wheat seedlings, incubated 4 days, percent control vs acetone-water control plants
Procedure: Wheat cv. Tonic is used as the host plant. […] The tray is 60 cm x 30 cm.
Percent control is then recorded.

Host Plants = assay: Phytotoxicity to host plants in the in vivo screen; conditions: 400 ppm sprayed to run off, host plants of the in vivo screen
Procedure: For each compound 3 replicate plants per pathogen at the 1 leaf stage are sprayed to run off. The plants are allowed to dry at room temperature for 24 hours prior to inoculation.
Untreated control plants and plants sprayed with 10 percent acetone-water or water alone (as required) are included for each pathogen.
Barley cv. Golden Promise is used as the host plant. Seeds are sown 8 per 3 in. (7.5 cm) pot and allowed to germinate and the plants are treated when they are approximately 2 weeks old. Spores are blown onto the test plants from the stock plants, which are then incubated at 20°C, relative humidity 70 percent for 7 days. After a week symptoms are recorded. The percent infection is scored from 3 replicate plants and expressed as a percent of the infection on the acetone-water control plants. The percent control is then recorded.
Wheat cv. Tonic is used as the host plant. Seeds are sown 1 cm deep in 4 rows per plastic tray. The tray is 60 cm x 30 cm. Seedlings grown to the 1-2 leaf stage are then inoculated. Into 100 mL of distilled water is placed 0.05 g of uredospores with a melting agent. This solution is sprayed onto the seedlings leaving a fine coverage on the leaves. The plants are then incubated with 100 percent relative humidity at 15-20°C for 4 days.

Compound	Percent Efficacy, Erysiphe graminis (Erysiphe graminis Hordei)	Percent Efficacy, Puccinia recondita (Puccinia recondita)	Percent Phytotoxicity to Host Plants (Host Plants)
CC(=O)O.C[C@H]1[C@@H](c2ccc(C(C)(C)C)cc2)CCN1C1=NCCCN1 (relative stereo) [Example 1, Cis N-(tetrahydropyrimidin-2-yl)-2-methyl-3-(4-t-butylphenyl)pyrrolidinium acetate]	100%	0%	0%
CC(=O)O.C[C@H]1[C@H](c2ccc(C(C)(C)C)cc2)CCN1C1=NCCCN1 (relative stereo) [Example 2, trans N-(tetrahydropyrimidin-2-yl)-2-methyl-3-(4-t-butylphenyl)pyrrolidine acetate]	83%	0%	0%
C[C@H]1[C@@H](c2ccc(C(C)(C)C)cc2)CCN1C1=NCCCN1.Cl (relative stereo) [Example 3, Cis N-(tetrahydropyrimidin-2-yl)-2-methyl-3--(4-t-butylphenyl)pyrrolidinium chloride]	14%	100%	
C[C@H]1[C@H](c2ccc(C(C)(C)C)cc2)CCN1C1=NCCCN1.Cl (relative stereo) [Example 4, Trans N-(tetrahydropyrimidin-2-yl)-2-methyl,3-(4-t-butylphenyl)pyrrolidinium chloride]	87%	66%	
CC1CC(C)NC(N2CC[C@H](c3ccc(C(C)(C)C)cc3)[C@@H]2C)=N1.Cl (relative stereo) [Example 5, Cis N-(4,6-dimethyltetrahydropyrimidin-2-yl)-2-methyl-3-(4-t-butylphenyl)pyrrolidinium chloride]	52%	100%	0%
CC1CC(C)NC(N2CC[C@@H](c3ccc(C(C)(C)C)cc3)[C@@H]2C)=N1.Cl (relative stereo) [Example 6, Trans N-(4,6-dimethyltetrahydropyrimidin-2-yl)-2-methyl-3-(4-t-butylphenyl)pyrrolidinium chloride]	100%	0%	0%
CCCCCCCC[C@H]1CCN(C2=NCCCN2)[C@H]1C.Cl (relative stereo) [Example 7, Cis N-(tetrahydropyrimidin-2-yl)-2-methyl-3-octyl pyrrolidinium chloride]	79%	0%	

Reference: EP0375414B1, “Substituted guanidine and amidine compounds, their production and fungicidal use” (DowElanco, priority 1988, dated 1990)
